Experimental data reported in paper PMC10222270, “Natural Product-Based Screening for Lead Compounds Targeting SARS CoV-2 M^pro” (Pharmaceuticals, 2023).
Values joined by “and” are separate entries in the source; they are usually repeats but may differ in a detail not shown here. Equal entries are not always repeated. Structures can show the parent of a compound that is named as a salt. Where two headings read alike, the source gives them in different places.

Columns and labels:
SARS CoV-2 M^pro [1] = target: T1, SARS CoV-2 M^pro (Severe acute respiratory syndrome coronavirus 2, UniProt P0DTD1); assay: nanoDSF thermal shift assay (TSA); assay type: binding; settings: for △T: versus M^pro+DMSO; for Kd: x-intercept of linear regression of ΔTm on log10 of compound concentration, read-out: Kobs
T1 construct: The main protease (M^pro) is a part of the polyprotein chain, also named 3C-like protease; SUMO (cleaved yes); His; made in house; host or cells: Escherichia coli BL21(DE3)

SARS CoV-2 M^pro [2] = target: T1, SARS CoV-2 M^pro; assay: biochemical; assay type: biochemical; settings: for inhibition at 80 µM: read-out: Inhibition%(80μM)
SARS CoV-2 M^pro [3] = target: T1, SARS CoV-2 M^pro; assay: Surface plasmon resonance (SPR) binding to biotinylated M^pro; settings: SPR, single concentration 200 μM
[4] = 0.02%(v/v) Triton X−100 in buffer

Question: What does the source list for `O=c1cc(-c2ccccc2)oc2cc(O)c(O)c(O)c12` [baicalein, Baicalein, reference compound]?
Answer: Tm of M^pro (SARS CoV-2 M^pro [1]; compound 3.125 μM): 55.2 °C; △T (SARS CoV-2 M^pro [1]; compound 3.125 μM): 0.3 °C; Tm of M^pro (SARS CoV-2 M^pro [1]; compound 50 μM): 56.6 °C; △T (SARS CoV-2 M^pro [1]; compound 50 μM): 1.7 °C; Tm of M^pro (SARS CoV-2 M^pro [1]; compound 200 μM): 57.0 °C; △T (SARS CoV-2 M^pro [1]; compound 200 μM): 2.1 °C; inhibition at 80 µM (SARS CoV-2 M^pro [2]; 80 μM compound, first value column of Table S2): 99.9%; inhibition at 80 µM (SARS CoV-2 M^pro [2]; 80 μM compound, second value column of Table S2): 101%; inhibition at 80 µM (SARS CoV-2 M^pro [2]; 80 μM compound, third value column of Table S2): 98.7%

Question: Which “Tm of M^pro” value (SARS CoV-2 M^pro [1]; compound 50 μM) does the source give for `CC(C)=CC[C@H](OC(=O)C=C(C)C)C1=CC(=O)c2c(O)ccc(O)c2C1=O` [β,β–dimethylacrylalkannin, β,β-Dimethylacrylalkannin] here?
Answer: 57.7 °C

Question: And the “△T” value (SARS CoV-2 M^pro [1]; compound 50 μM)?
Answer: 2.8 °C

Question: And the “Tm of M^pro” value (SARS CoV-2 M^pro [1]; compound 200 μM)?
Answer: 58.3 °C

Question: What about the “△T” value (SARS CoV-2 M^pro [1]; compound 200 μM) of the same molecule?
Answer: 3.4 °C

Question: What about the Kd (SARS CoV-2 M^pro [1]) of the same molecule?
Answer: 1.9 µM

Question: What about the “Inhibition%(80μM)” value (SARS CoV-2 M^pro [2]) of the same molecule?
Answer: 99.09% and 97.96%

Question: What about the IC50 (SARS CoV-2 M^pro [2]; [4]) of the same molecule?
Answer: 2.89 ± 0.185 µM

Question: What about the IC50 (SARS CoV-2 M^pro [2]; Without Triton X−100) of the same molecule?
Answer: 2.73 ± 0.308 µM

Question: What about the inhibition at 80 µM (SARS CoV-2 M^pro [2]) of the same molecule?
Answer: 100%

Question: `CC(=O)OCCc1ccc(O)c(O)c1` [hydroxytyrosol acetate, Hydroxytyrosol Acetate] was tested. Which “Inhibition%(80μM)” value (SARS CoV-2 M^pro [2]) did it give?
Answer: 103.09% and 102.91%

Question: And the IC50 (SARS CoV-2 M^pro [2]; [4])?
Answer: 3.78 ± 0.453 µM

Question: And the IC50 (SARS CoV-2 M^pro [2]; Without Triton X−100)?
Answer: 3.85 ± 0.576 µM

Question: What about the inhibition at 80 µM (SARS CoV-2 M^pro [2]) of the same molecule?
Answer: 103%

Question: What about the “binding trend to M^pro” value (SARS CoV-2 M^pro [3]) of the same molecule?
Answer: no binding trends

Question: With `O=C(/C=C/c1ccc(O)c(O)c1)O[C@H](Cc1ccc(O)c(O)c1)C(=O)O` [Rosmarinic Acid] as the molecule, how does the “Inhibition%(80μM)” value (SARS CoV-2 M^pro [2]) read?
Answer: 46.31% and 76.08% and 69.63%

Question: Which results are given for `COc1cc(O)c2c(c1)oc(=O)c1c3cc(O)c(O)cc3oc21` [wedelolactone, Wedelolactone]?
Answer: Tm of M^pro (SARS CoV-2 M^pro [1]; compound 3.125 μM): 55.2 °C; △T (SARS CoV-2 M^pro [1]; compound 3.125 μM): 0.3 °C; Tm of M^pro (SARS CoV-2 M^pro [1]; compound 50 μM): 55.8 °C; △T (SARS CoV-2 M^pro [1]; compound 50 μM): 0.9 °C; Tm of M^pro (SARS CoV-2 M^pro [1]; compound 200 μM): 56.1 °C; △T (SARS CoV-2 M^pro [1]; compound 200 μM): 1.2 °C; Kd (SARS CoV-2 M^pro [1]): 0.977 µM; Inhibition%(80μM) (SARS CoV-2 M^pro [2]): 101.88% and 102.36%; IC50 (SARS CoV-2 M^pro [2]; [4]): 2.51 ± 0.276 µM; IC50 (SARS CoV-2 M^pro [2]; Without Triton X−100): 1 ± 0.238 µM; inhibition at 80 µM (SARS CoV-2 M^pro [2]): 102%

Question: What does the source list for `COc1cc2ccc(=O)oc2c(O)c1O` [fraxetin, Fraxetin]?
Answer: Inhibition%(80μM) (SARS CoV-2 M^pro [2]): 97.85% and 96.97%; IC50 (SARS CoV-2 M^pro [2]; [4]): 1.3 ± 0.208 µM; IC50 (SARS CoV-2 M^pro [2]; Without Triton X−100): 2.49 ± 0.178 µM; inhibition at 80 µM (SARS CoV-2 M^pro [2]): 96.8%; binding trend to M^pro (SARS CoV-2 M^pro [3]): no binding trends

Question: Which results are given for `O=C(O[C@@H]1O[C@@H]2COC(=O)c3cc(O)c(O)c(O)c3-c3c(cc(O)c(O)c3O)C(=O)O[C@H]([C@H]1O)[C@@H]2O)c1cc(O)c(O)c(O)c1` [Corilagin]?
Answer: Inhibition%(80μM) (SARS CoV-2 M^pro [2]): 101.84% and 101.22%; inhibition at 80 µM (SARS CoV-2 M^pro [2]): 101%

Question: What does the source list for `O=C(O)[C@H]1O[C@@H](Oc2cc3oc(-c4ccccc4)cc(=O)c3c(O)c2O)[C@H](O)[C@@H](O)[C@@H]1O` [Baicalin]?
Answer: Inhibition%(80μM) (SARS CoV-2 M^pro [2]): 72.02%; inhibition at 80 µM (SARS CoV-2 M^pro [2]): 77.5%

Question: Forsythoside B was tested. Which “Inhibition%(80μM)” value (SARS CoV-2 M^pro [2]) did it give?
Answer: 92.91% and 95.11% and 93.46%

Question: With `CC(C)=CCC(OC(=O)C=C(C)C)C1=CC(=O)c2c(O)ccc(O)c2C1=O` (stereo not drawn) [(β,β-Dimethylacryl)Shikonin] as the molecule, how does the “Inhibition%(80μM)” value (SARS CoV-2 M^pro [2]) read?
Answer: 82.39% and 82.91% and 82.80%

Question: For `O=C(/C=C/c1ccc(O)c(O)c1)O[C@@H]1C[C@@](OC(=O)/C=C/c2ccc(O)c(O)c2)(C(=O)O)C[C@@H](O)[C@@H]1O` [1,5-Dicaffeoylquinic Acid], which “Inhibition%(80μM)” value (SARS CoV-2 M^pro [2]) is on record?
Answer: 75.61% and 71.24%

Question: And the inhibition at 80 µM (SARS CoV-2 M^pro [2])?
Answer: 74.6%

Question: `CC(C)CCCC(C)C1CCC2C3CC=C4CC(OS(=O)(=O)O)CCC4(C)C3CCC12C` (stereo not drawn) [cholesteryl sodium sulfate, Cholesteryl sodium sulfate] was tested. Which “Tm of M^pro” value (SARS CoV-2 M^pro [1]; compound 3.125 μM) did it give?
Answer: 55.0 °C

Question: And the “△T” value (SARS CoV-2 M^pro [1]; compound 3.125 μM)?
Answer: 0.1 °C

Question: What about the “Tm of M^pro” value (SARS CoV-2 M^pro [1]; compound 50 μM) of the same molecule?
Answer: 54.1 °C

Question: What about the “△T” value (SARS CoV-2 M^pro [1]; compound 50 μM) of the same molecule?
Answer: -0.8 °C

Question: And the “Tm of M^pro” value (SARS CoV-2 M^pro [1]; compound 200 μM)?
Answer: 48.9 °C

Question: And the “△T” value (SARS CoV-2 M^pro [1]; compound 200 μM)?
Answer: -6.0 °C

Question: And the Kd (SARS CoV-2 M^pro [1])?
Answer: 7.6 µM

Question: What about the “Inhibition%(80μM)” value (SARS CoV-2 M^pro [2]) of the same molecule?
Answer: 100.30% and 100.48%

Question: And the IC50 (SARS CoV-2 M^pro [2]; Without Triton X−100)?
Answer: 2.74 ± 0.234 µM

Question: What about the inhibition at 80 µM (SARS CoV-2 M^pro [2]) of the same molecule?
Answer: 100%

Question: What does the source list for `OCCc1ccc(O)c(O)c1` [3,4-Dihydroxyphenylethanol]?
Answer: Inhibition%(80μM) (SARS CoV-2 M^pro [2]): 102.33% and 102.25%; inhibition at 80 µM (SARS CoV-2 M^pro [2]): 101%

Question: How did the “Inhibition%(80μM)” value (SARS CoV-2 M^pro [2]) turn out when `CC(C)=CCC(O)C1=CC(=O)c2c(O)ccc(O)c2C1=O` (racemic) [(±)-Shikonin] was run?
Answer: 95.04% and 93.71%

Question: What about the inhibition at 80 µM (SARS CoV-2 M^pro [2]) of the same molecule?
Answer: 87.6%

Question: Which “Inhibition%(80μM)” value (SARS CoV-2 M^pro [2]) does the source give for `C[C@@H]1O[C@@H](OC[C@H]2O[C@@H](OCCc3ccc(O)c(O)c3)[C@H](O)[C@@H](O)[C@@H]2O)[C@H](O)[C@H](O)[C@H]1O` [Forsythoside E] here?
Answer: 102.62% and 100.37%

Question: And the inhibition at 80 µM (SARS CoV-2 M^pro [2])?
Answer: 103%

Question: For `Cc1c(=O)c(=O)c2c3c[nH]c4c(C)c(=O)c(=O)c(c5c[nH]c1c52)c43` [melanin, Melanin], which “Tm of M^pro” value (SARS CoV-2 M^pro [1]; compound 3.125 μM) is on record?
Answer: 55.0 °C

Question: What about the “△T” value (SARS CoV-2 M^pro [1]; compound 3.125 μM) of the same molecule?
Answer: 0.1 °C

Question: What about the “Tm of M^pro” value (SARS CoV-2 M^pro [1]; compound 50 μM) of the same molecule?
Answer: 54.9 °C

Question: What about the “△T” value (SARS CoV-2 M^pro [1]; compound 50 μM) of the same molecule?
Answer: 0.0 °C

Question: And the “Tm of M^pro” value (SARS CoV-2 M^pro [1]; compound 200 μM)?
Answer: 54.4 °C

Question: And the “△T” value (SARS CoV-2 M^pro [1]; compound 200 μM)?
Answer: -0.5 °C

Question: And the Kd (SARS CoV-2 M^pro [1])?
Answer: 11.6 µM

Question: And the “Inhibition%(80μM)” value (SARS CoV-2 M^pro [2])?
Answer: 96.84% and 96.92%

Question: What about the IC50 (SARS CoV-2 M^pro [2]; Without Triton X−100) of the same molecule?
Answer: 7.37 ± 0.368 µM

Question: What about the inhibition at 80 µM (SARS CoV-2 M^pro [2]) of the same molecule?
Answer: 95.8%

Question: Which results are given for `C[C@@H]1O[C@@H](OC[C@H]2O[C@@H](OCCc3ccc(O)c(O)c3)[C@H](O)[C@@H](OC(=O)/C=C/c3ccc(O)c(O)c3)[C@@H]2O)[C@H](O)[C@H](O)[C@H]1O` [Isoforsythiaside]?
Answer: Inhibition%(80μM) (SARS CoV-2 M^pro [2]): 100.44% and 101.30%; inhibition at 80 µM (SARS CoV-2 M^pro [2]): 100%

Question: Which “Inhibition%(80μM)” value (SARS CoV-2 M^pro [2]) does the source give for `CCCCCCCCCCC/C=C\CCCCC(=O)O` [Petroselinic Acid] here?
Answer: 105.29% and 103.73%

Question: And the inhibition at 80 µM (SARS CoV-2 M^pro [2])?
Answer: 104%

Question: How did the “Inhibition%(80μM)” value (SARS CoV-2 M^pro [2]) turn out when Echinacoside was run?
Answer: 93.62% and 90.06% and 89.84%

Question: Which “Inhibition%(80μM)” value (SARS CoV-2 M^pro [2]) does the source give for `CC(=O)O[C@H]1[C@H](OCCc2ccc(O)c(O)c2)O[C@H](CO)[C@@H](OC(=O)/C=C/c2ccc(O)c(O)c2)[C@@H]1O[C@@H]1O[C@@H](C)[C@H](O)[C@@H](O)[C@H]1O` [2'-Acetylacteoside] here?
Answer: 93.37% and 90.77%

Question: And the inhibition at 80 µM (SARS CoV-2 M^pro [2])?
Answer: 90.6%
